What was measured:
Settings in all cases: incubation time: 72 h
MFM-223 [1] = assay: normalised viability (% of control), CellTiter-Blue; higher = more viable cells (100 = DMSO, 0 = benzethonium chloride kill control)
Method: (§1)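 DSRT, CellTiter-Blue viability, 72 h incubation. Signal is normalised to DMSO and benzethonium chloride controls. Value is the normalised response at dose 1.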

CAL-85-1 [2] = assay: as above
Method: as §1

MDA-MB-231 [3] = assay: as above
Method: as §1

BT-474 [4] = assay: as above
Method: as §1

MDA-MB-453 [5] = assay: as above
Method: as §1

CAL-148 [6] = assay: as above
Method: as §1

SK-BR-3 [7] = assay: as above
Method: as §1

HCC1599 [8] = assay: as above
Method: as §1

MDA-MB-436 [9] = assay: as above
Method: as §1

Hs578T [10] = assay: as above
Method: as §1

HCC1937 [11] = assay: as above
Method: as §1

HCC1143 [12] = assay: as above
Method: as §1

CAL-120 [13] = assay: as above
Method: as §1

HDQ-P1 [14] = assay: as above
Method: as §1

DU-4475 [15] = assay: as above
Method: as §1

CAL-51 [16] = assay: as above
Method: as §1

BT-549 [17] = assay: as above
Method: as §1

MDA-MB-468 [18] = assay: as above
Method: as §1

MCF-10A = assay: normalised response (% of control), CellTiter-Glo; higher = more viable cells (100 = DMSO, 0 = benzethonium chloride kill control)
Summary of the method: (§2)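 Values are normalised signals, each belonging to one concentration of the series. Breast cancer cells (20 µl suspension) were seeded into 384-well plates with compound at 5 concentrations in 10-fold steps over a compound-specific 10,000-fold range and incubated 72 h. Readouts were CellTox Green fluorescence (485/520 nm), then CellTiter-Glo luminescence after 10 min at room temperature, with each plate set to 0.1 % DMSO as 100 and a positive kill control as 0.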

MFM-223 [19] = assay: as above
Summary of the method: as §2

CAL-85-1 [20] = assay: as above
Summary of the method: as §2

MDA-MB-231 [21] = assay: as above
Summary of the method: as §2

BT-474 [22] = assay: as above
Summary of the method: as §2

MDA-MB-453 [23] = assay: as above
Summary of the method: as §2

CAL-148 [24] = assay: as above
Summary of the method: as §2

SK-BR-3 [25] = assay: as above
Summary of the method: as §2

HCC1599 [26] = assay: as above
Summary of the method: as §2

MDA-MB-436 [27] = assay: as above
Summary of the method: as §2

Hs578T [28] = assay: as above
Summary of the method: as §2

HCC1937 [29] = assay: as above
Summary of the method: as §2

HCC1143 [30] = assay: as above
Summary of the method: as §2

CAL-120 [31] = assay: as above
Summary of the method: as §2

HDQ-P1 [32] = assay: as above
Summary of the method: as §2

DU-4475 [33] = assay: as above
Summary of the method: as §2

CAL-51 [34] = assay: as above
Summary of the method: as §2

BT-549 [35] = assay: as above
Summary of the method: as §2

MDA-MB-468 [36] = assay: as above
Summary of the method: as §2

Row | Structure (SMILES) | normalised viability (MFM-223 [1]) | normalised viability (CAL-85-1 [2]) | normalised viability (MDA-MB-231 [3]) | normalised viability (BT-474 [4]) | normalised viability (MDA-MB-453 [5]) | normalised viability (CAL-148 [6]) | normalised viability (SK-BR-3 [7]) | normalised viability (HCC1599 [8]) | normalised viability (MDA-MB-436 [9]) | normalised viability (Hs578T [10]) | normalised viability (HCC1937 [11]) | normalised viability (HCC1143 [12]) | normalised viability (CAL-120 [13]) | normalised viability (HDQ-P1 [14]) | normalised viability (DU-4475 [15]) | normalised viability (CAL-51 [16]) | normalised viability (BT-549 [17]) | normalised viability (MDA-MB-468 [18]) | normalised response (MCF-10A) | normalised response (MFM-223 [19]) | normalised response (CAL-85-1 [20]) | normalised response (MDA-MB-231 [21]) | normalised response (BT-474 [22]) | normalised response (MDA-MB-453 [23]) | normalised response (CAL-148 [24]) | normalised response (SK-BR-3 [25]) | normalised response (HCC1599 [26]) | normalised response (MDA-MB-436 [27]) | normalised response (Hs578T [28]) | normalised response (HCC1937 [29]) | normalised response (HCC1143 [30]) | normalised response (CAL-120 [31]) | normalised response (HDQ-P1 [32]) | normalised response (DU-4475 [33]) | normalised response (CAL-51 [34]) | normalised response (BT-549 [35]) | normalised response (MDA-MB-468 [36])
1 | N#Cc1ccc(COC[C@H]2O[C@@H](n3c(NCc4ccc(Cl)c(Cl)c4)nc4c(N)ncnc43)[C@H](O)[C@@H]2O)cc1 (1 nM) | 92.5% | 98.4% | 102% | 116% | 110% | 111% | 91.4% | 109% | 110% | 92.8% | 84.1% | 99.9% | 101% | 118% | 111% | 111% | 105% | 95.5% | 112% | 107% | 104% | 107% | 109% | 112% | 110% | 109% | 110% | 104% | 101% | 103% | 108% | 108% | 108% | 99.1% | 78.2% | 99.8% | 107%
2 | COc1cc(OC2CCN(C)CC2)ccc1Nc1ncc2c(n1)n(C1CCCC1)c(=O)n2C [AZ 3146] (1 nM) | 109% | 114% | 92.2% | 98.9% | 94.3% | 109% | 107% | 126% | 103% | 89.2% | 95.2% | 128% | 116% | 88.3% | 98.8% | 92.4% | 84.3% | 105% | 94.2% | 98.2% | 99.7% | 102% | 95.5% | 112% | 101% | 98.3% | 125% | 85.8% | 93.7% | 95.9% | 98.9% | 105% | 98.4% | 90.9% | 101% | 107% | 101%
3 | CN(C)c1nc(N(C)C)nc(N(C)C)n1 [Altretamine] (1 nM) | 95.1% | 94.8% | 96% | 112% | 99.1% | 111% | 87.6% | 86.3% | 110% | 97.3% | 105% | 102% | 88.2% | 116% | 111% | 105% | 93.1% | 93.1% | 102% | 103% | 96.4% | 104% | 106% | 124% | 96.5% | 108% | 90.2% | 97.9% | 102% | 93.1% | 99.6% | 97% | 101% | 104% | 103% | 95% | 101%
4 | Nc1cc(C(F)(F)F)c(-c2cc(N3CCOCC3)nc(N3CCOCC3)n2)cn1 [BKM-120] (1 nM) | 93% | 89.5% | 110% | 116% | 103% | 105% | 99.7% | 82.8% | 104% | 121% | 95.9% | 88.4% | 85.6% | 99% | 114% | 98% | 97.8% | 96.6% |  |  |  |  |  |  |  |  |  |  |  |  |  |  |  |  |  |  | 

From the supplement of paper PMC4862054
